The results in this text go back to ChEMBL document CHEMBL3301472, “MMV Malaria Box HIV and cytotoxicity screening”.

For series [1], the system named is Human immunodeficiency virus 1. Kind of series: MMV: HIV NL4-3 CXCR4-tropic replication-competent virus, virus & compound washed out Day 1 pi, P24 ELISA Day 7 pi, U87-CD4-CXCR4, % inhibition at 5 mM compound. It is filed as functional. Further details: dose or concentration left out as unconfirmed. To be noted: Human immunodeficiency virus 1, NL4-3, U87.CD4.CXCR4. In general terms: In an ELISA, binding on a coated surface is turned into a signal by an enzyme label.

Series [2] can be described thus: MMV: MTT Cytotoxicity Assay Day 7 pi of Assay #10 (NO washout), U87-CD4-CCR5 cells, % cell death @ 5mM compound. It is filed as toxicity, cell-based. To be noted: human, u87-cd4-ccr5, 5000 µM.
Series [3] is described as follows: MMV: MTT Cytotoxicity Assay Day 7 pi of Assay #6 (compound washed out Day 1 pi), U87-CD4-CCR5 cells, % cell death @ 5mM compound. Type of series: toxicity, cell-based. To be noted: human, u87-cd4-ccr5, 5000 µM.
Series [4] in a line: MMV: MTT Cytotoxicity Assay Day 7 pi of Assay #11 (NO washout), U87-CD4-CXCR4 cells, % cell death @ 5mM compound. It is filed as toxicity, cell-based. The conditions noted are these: human, u87-cd4-cxcr4, 5000 µM.
A short description of series [5]: MMV: MTT Cytotoxicity Assay Day 3 pi, U87-CD4-CXCR4 cells, % cell death @ 5mM compound. Type of series: toxicity, cell-based. The conditions noted are these: human, u87-cd4-cxcr4, 5000 µM.
Series [6] can be described thus: MMV: MTT Cytotoxicity Assay Day 3 pi, U87-CD4-CCR5 cells, % cell death @ 5mM compound. Type of series: toxicity, cell-based. The conditions noted are these: human, u87-cd4-ccr5, 5000 µM.
A short description of series [7]: MMV: MTT Cytotoxicity Assay Day 7 pi of Assay #7 (compound washed out Day 1 pi), U87-CD4-CXCR4 cells, % cell death @ 5mM compound. Type of series: toxicity, cell-based. To be noted: human, u87-cd4-cxcr4, 5000 µM.
The test system of series [8] is Human immunodeficiency virus 1. As to the kind of experiment: MMV: HIV CXCR4-tropic env HxB2 pseudovirus assay produces luciferase signal in lieu of replicating viral particles Day 3 pi, U87-CD4-CXCR4, % inhibition at 5 mM compound. It is filed as functional. Further details: dose or concentration left out as unconfirmed. To be noted: Human immunodeficiency virus 1, HxB2, U87.CD4.CXCR4, 72 h.

Series [9] deals with Human immunodeficiency virus 1. Kind of series: MMV: HIV CXCR4-tropic env NL4-3 pseudovirus assay produces luciferase signal in lieu of replicating viral particles Day 3 pi, U87-CD4-CXCR4, % inhibition at 5 mM compound. It is filed as functional. More on the design: dose or concentration left out as unconfirmed. The conditions noted are these: Human immunodeficiency virus 1, NL4-3, U87.CD4.CXCR4, 72 h.

For series [10], the system named is Human immunodeficiency virus 1. As to the kind of experiment: MMV: HIV JRFL CCR5-tropic replication-competent virus, virus & compound washed out Day 1 pi, P24 ELISA Day 7 pi, U87-CD4-CCR5, % inhibition at 5 mM compound. More on the design: dose or concentration left out as unconfirmed. The conditions noted are these: Human immunodeficiency virus 1, JR-FL. Type of series: functional.

The inhibition is the drop in the measured response relative to a control, in per cent. On to `COc1ccc(C(=O)Nc2ccc3nc(N4CCCCC4)cc(C)c3c2)cc1OC`, for which the inhibition in series [1] is 5%. For the same compound, the “% Cell Death” value in [2] was 91; in series [3] it was 78; in series [4] it was 106; in series [5] it was 23; in series [6], 108; in [7] it was 16.

Take `CCOc1ccc(Nc2c3ccccc3nc3ccccc23)cc1.Cl`: the “% Cell Death” value in series [2] came to 43; in series [3] it was 34; in series [4], 95; in [5], 1; in [6] it was 47; in series [7] it was 42. For the same compound, the inhibition in [8] turned out to be 5%; in series [9] it was 2%.

Regarding `COc1ccc(NC(=O)C2c3ccccc3C(=O)N(CC(C)C)C2c2cccs2)cc1` (stereo not drawn), the inhibition in series [1] was 6%; in series [10], 3%. For the same compound, the “% Cell Death” value in series [2] is recorded as -9; in [3], -1; in [4] it was -27; in series [5] it was 13; in [6], 16; in series [7], -38.

As to `C=CCc1c(C)nc2ccccc2c1O`, the inhibition in series [1] came out at 4%. In addition, the “% Cell Death” value is on record as 109 in series [2]; -8 in [3]; 50 in series [4]; 36 in [5]; 4 in series [6]; 38 in series [7].

As to `O=[N+]([O-])c1ccc(C=NNc2nc3ccccc3[nH]2)cc1`, the inhibition in series [1] worked out at 0%. Moreover, the “% Cell Death” value in series [2] is 38; in series [3], 28; in [4], 22; in series [5], 6; in series [6], 32; in series [7], -15.

As for `CCN(CC)CCNc1ccnc2cc3ccccc3cc12.O=P(O)(O)O`, the figures for the inhibition in [1] and in series [10] were -1% and 9%, respectively. Further, the “% Cell Death” value in series [2] is 10; in [3], -26; in series [4], -36; in series [5], 28; in [6] it was 33; in series [7] it was -15.

Take `CCOc1cc2c(cc1OCC)C(c1cc(Cl)c(O)c(OCC)c1)NCC2` (stereo not drawn): the inhibition in series [1] was determined as 3%. In addition, the “% Cell Death” value was 21 in series [2]; 8 in [3]; 38 in [4]; 15 in series [5]; -45 in series [6]; -20 in series [7].

For the compound `CCCc1c(C)nc2ccc(Br)cc2c1O`, the inhibition in series [1] amounted to 5%. For the same compound, the “% Cell Death” value was 25 in series [2]; -7 in [3]; 27 in series [4]; 29 in series [5]; 4 in series [6]; 7 in series [7].

As to `c1ccc(-c2ccc(-c3nc4ccccc4[nH]3)cc2)cc1`, the inhibition in series [1] was -1%. The “% Cell Death” value in series [2] is 11; in series [3], 16; in [4], 70; in series [5] it was 6; in series [6] it was 12; in [7], -19.

On to `OC(Cn1nnc2ccccc21)Cn1c2ccc(Br)cc2c2cc(Br)ccc21` (stereo not drawn), for which the inhibition in [1] was 1%; in series [10], -2%. Moreover, the “% Cell Death” value was 27 in series [2]; 2 in series [3]; 18 in [4]; -29 in series [5]; 15 in series [6]; 8 in series [7].

With `CCCCCCC(O)(c1ccc(F)cc1)C(CN1CCOCC1)c1ccccc1.Cl` (stereo not drawn), the inhibition in series [1] is 8%. Further, the “% Cell Death” value in series [2] is -2; in series [3], 3; in [4] it was -35; in [5], 12; in series [6], 13; in series [7] it was -17.

In the case of `CC(C)(C)c1ccc(C(=O)Nc2c3c(nn2-c2cccc(Cl)c2)CSC3)cc1`, the inhibition in series [1] worked out at 7%. Besides, the “% Cell Death” value is reported as 7 in series [2]; 2 in series [3]; 1 in series [4]; -37 in series [5]; 7 in series [6]; -2 in series [7].

`Cc1cccc(N2C(=O)C3C(C2=O)C2(c4ccccc4)C(=O)C3(c3ccccc3)C(c3ccc4c(c3)OCO4)=C2c2ccc3c(c2)OCO3)c1` (stereo not drawn): the inhibition in series [1] was found to be 3%. Besides, the “% Cell Death” value in [2] is 0; in series [3], 4; in series [4], -20; in series [5] it was 35; in [6] it was 4; in [7] it was -2.

As to `COc1ccc(C2Sc3ccccc3N=C3C2=C(O)c2ccccc23)cc1` (stereo not drawn), the inhibition in [1] and in [10] was 7% in each case. Also, the “% Cell Death” value in series [2] is 17; in [3] it was 7; in series [4], 3; in [5] it was 10; in [6], 0; in series [7] it was -32.

With `O=C(Nc1nc(-c2ccccn2)cs1)c1ccccc1Br`, the inhibition in series [1] worked out at 4%. In addition, the “% Cell Death” value in series [2] is 118; in series [3], -13; in [4] it was 85; in series [5], 28; in [6], -1; in series [7], -6.

For `CC(C)(C)CC(C)(C)NCC(O)COc1ccc2c(c1)CCC2.Cl` (stereo not drawn), the “% Cell Death” value in series [2] is recorded as -10; in series [3], 2; in [4], 7; in [5], 10; in [6] it was -4; in series [7], -11. Also, the inhibition is 4% in series [8] and -1% in series [9].

Take `O=C(CCc1ccco1)NC1CCN(CC2(c3ccc(Cl)cc3)CCC2)CC1`: the inhibition in series [1] came to 1%. The “% Cell Death” value is reported as 109 in series [2]; 2 in [3]; 97 in series [4]; 38 in series [5]; 18 in series [6]; 24 in series [7].

Take `O=C(Nc1ccccc1O)c1ccc(Oc2cccc(C(=O)Nc3ccccc3O)c2)cc1`: in series [1], the inhibition was 0%. Moreover, the “% Cell Death” value in [2] was 28; in [3], 17; in series [4] it was -20; in series [5] it was 4; in [6], 43; in series [7], -12.

On to `COc1ccc(/C=C2/SC(=Nc3ccccc3)NC2=O)cc1`, for which the “% Cell Death” value in series [2] is listed as 115; in series [3] it was 93; in series [4] it was 66; in series [5], 28; in [6] it was 54; in series [7] it was 77. In [8], the inhibition came to 3%.

Turning to `O=C(O)C1Cc2c([nH]c3ccccc23)C(c2ccc(Cl)cc2Cl)N1` (stereo not drawn), the inhibition in series [1] amounted to 0%. Also, the “% Cell Death” value is 27 in [2]; 15 in [3]; -2 in [4]; 11 in series [5]; 10 in [6]; -34 in [7].

For the compound `OC(CNC1CCCCC1)Cn1c2ccc(I)cc2c2cc(I)ccc21` (stereo not drawn), the inhibition in [10] and in series [8] was 3% in each case. Further, the “% Cell Death” value is on record as -2 in series [2]; 3 in [3]; 26 in series [4]; 25 in [5]; 27 in series [6]; -9 in [7].

Turning to `COC(=O)c1ccc(C2C3=C(O)CC(c4ccc(F)cc4)CC3=Nc3ccccc3N2C(=O)c2ccccc2)cc1` (stereo not drawn), the inhibition in series [1] was -1%. For the same compound, the “% Cell Death” value is given as 18 in series [2]; 39 in series [3]; -29 in [4]; 33 in series [5]; -1 in [6]; 12 in series [7].

With `Cc1ccc(C2CC(C(F)(F)F)n3nc(C(=O)N4CCN(C(c5ccccc5)c5ccccc5)CC4)cc3N2)cc1` (stereo not drawn), the “% Cell Death” value came out at 75 in series [2]; 77 in series [3]; 58 in series [4]; 64 in series [5]; 86 in series [6]; 62 in [7]. Besides, the inhibition in series [8] was determined as 5%.
